Measured values: patent publication US10662193B2, “Carbazole and carboline compounds for use in the diagnosis, treatment, alleviation or prevention of disorders associated with amyloid or amyloid-like proteins” (AC IMMUNE SA, priority 2014, dated 2020)

Tests used:
[1] = target: T1, in vitro aggregated Abeta1-42 (Homo sapiens, UniProt P05067); test: Assay 2 (filter trap): [3H]RefA radio-binding assay, Kd on aggregated Abeta1-42; settings: Table 23; aggregated Abeta1-42 versus AD brain-enriched PHF
T1 construct: Abeta1-42 (Bachem, Switzerland) peptide films were re-suspended in 1% DMSO; purchased Bachem, Switzerland
Protocol: Preparation of Full-Length Tau and Abeta1-42 Aggregates
Recombinant human full-length Tau441 (flTau) was expressed in bacteria and purified in the laboratory of Professor Hilal Lashuel (EPFL, Switzerland). A solution of 8 μM (400 μg/mL) flTau in PBS, 10 μM DTT and 5 μM heparin (all from Sigma-Aldrich) was gently mixed (cradled) for 3 days at 37° C. Cradled flTau aggregates were used at a final concentration of 20 μg/mL in all binding assays. Abeta1-42 (Bachem, Switzerland) peptide films were re-suspended in 1% DMSO and diluted in PBS to a 33 μM (150 μg/mL) suspension that was sonicated until complete dissolution. Aggregation process was done at 37° C. for 24 hours. […]
AD brain-enriched PHF were diluted 1/80 (with an estimated tau concentration of 62.5 ng/ml and incubated with [^3H]RefA at different concentrations ranging from 50 nM to 1.25 nM. The reaction was performed in a final volume of 70 μL PBS with 2.8% DMSO, for 45 min at 37° C. 30 μL of samples in duplicates were then filtered under vacuum on a GF/B filter plate (PerkinElmer 6005177) to trap the PHF with the bound radio-ligand, and washed three times with PBS. The GF/B filters were then vacuum-dried, 20 μL scintillation liquid (PerkinElmer 1200-436) was added in each well, and the filters were analyzed on a Microbeta Trilux device. […] Specific binding was calculated by subtracting the non-specific signal to the total signal. […]

[2] = test system: tau tangles/Aβ plaques on AD brain sections; test: Assay 1: direct staining of human Alzheimer's disease brain sections (fluorescence); assay type: binding; settings: 100 μM; FIG. 1
How it was run: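 Frozen […] amygdala sections from Braak V-VI AD donors, PFA-fixed, incubated with compound at 100 μM in 50% ethanol for 20 min at room temperature in the dark. Sudan Black quenched autofluorescence, then staining detected by fluorescence microscopy.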

[3] = target: AD brain-enriched PHF (Homo sapiens, UniProt P10636); test: Assay 2 (filter trap): radio-binding assay, determination of the dissociation constant (Kd) on PHF; settings: tritiated ligand 1.25-50 nM, PHF diluted 1/80, 45 min 37° C.
Protocol: Enrichment of Paired Helical Filaments (PHF's) from Human Alzheimer's Disease Brain
50 g of frontal lobe tissue from post-mortem brain of an Alzheimer's disease (AD) patient were obtained from the London Tissue Bank. The patient was a […] and died […]. The brain sample was collected 5 hours post-mortem and characterized for Braak disease stage (Braak, H.; Braak, E. Acta Neuropathol., 1991, 82, 239-259) as stage VI. […]
AD brain-enriched PHF were diluted 1/80 (with an estimated tau concentration of 62.5 ng/ml and incubated with [^3H]RefA at different concentrations ranging from 50 nM to 1.25 nM. The reaction was performed in a final volume of 70 μL PBS with 2.8% DMSO, for 45 min at 37° C. 30 μL of samples in duplicates were then filtered under vacuum on a GF/B filter plate (PerkinElmer 6005177) to trap the PHF with the bound radio-ligand, and washed three times with PBS. The GF/B filters were then vacuum-dried, 20 μL scintillation liquid (PerkinElmer 1200-436) was added in each well, and the filters were analyzed on a Microbeta Trilux device. […] Specific binding was calculated by subtracting the non-specific signal to the total signal. […] The Kd values were calculated by nonlinear regression, one site specific binding using Prism V5 (GraphPad). […]

T1 sequence (P05067 672-713 limits assumed): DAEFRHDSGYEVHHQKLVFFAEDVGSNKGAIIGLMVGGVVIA
Chain of AD brain-enriched PHF (P10636 623-708 limits assumed): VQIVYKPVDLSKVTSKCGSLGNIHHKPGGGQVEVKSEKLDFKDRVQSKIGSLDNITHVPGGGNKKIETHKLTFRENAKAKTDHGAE

Q: Which results are given for `CNc1ccc(-c2ccc3ccc(O)cc3n2)cc1` [RefA]?
A: Fold increase on Abeta1-42 vs PHF [1]: 5; direct staining of tau tangles on AD brain section [2]: direct staining of tau tangles; Kd [3]: 35 nM
